Consider 3 compounds from ChEMBL document CHEMBL1131586, “New antipsychotic agents with serotonin and dopamine antagonist properties based on a pyrrolo[2,1-b][1,3]benzothiazepine structure” (J Med Chem, 1998).

As usually defined, the Ki is a measure of affinity in units of concentration, obtained from inhibition or displacement. Higher therefore signals a looser hold on the target. In general, IC50 refers to the concentration that inhibits the measured activity by half. A high value points to lower potency.

The subject of test [1] is Rattus norvegicus. The test can be described thus: Effect of compound on […], […] at 10 umol/kg upon subcutaneous administration; Catalepsy = 0/4. Type of test: functional.
Test [2] relates to Rattus norvegicus. Briefly: Effect of compound on […], […] at 30 umol/kg upon subcutaneous administration; Catalepsy = 0/4. Type of test: functional.
Test [3] relates to Rattus norvegicus. The test can be described thus: Effect of compound on apomorphine induced locomotor hyperactivity (APO-induced LMA), […] at 10 umol/kg upon subcutaneous administration; LMA (locomotor activity). The class given is functional.
Test [4] has as its system Rattus norvegicus. Briefly: Effect of compound on apomorphine induced locomotor hyperactivity (APO-induced LMA), […] at 30 umol/kg upon subcutaneous administration; LMA (locomotor activity). The class given is functional.
The test system of test [5] is Rattus norvegicus. The test can be described thus: Effect of compound on apomorphine induced locomotor hyperactivity (APO-induced LMA), […] at 1 umol/kg upon subcutaneous administration; LMA (locomotor activity). Type of test: functional.
Test [6] concerns Rattus norvegicus. The test can be described thus: Effect of compound on […], […] at 1 umol/kg upon subcutaneous administration; Catalepsy = 0/4. Type of test: functional.
For test [7], the target named is T1, Serotonin 2 (5-HT2) receptor (Rattus norvegicus, UniProt P30994+P08909+P14842).
Description: pKi value for 5-hydroxytryptamine 2 receptor binding site
Test [8] deals with T1, Serotonin 2 (5-HT2) receptor. This is another data set of the same source.
Description: Binding affinity which represents concentration giving half-maximal inhibition of [3H]ketanserin binding to 5-hydroxytryptamine 2 receptor rat tissue homogenate
Test [9] has as its system Rattus norvegicus. Briefly: Effect of compound on […], […] at 10 umol/kg upon subcutaneous administration; Catalepsy = 1/4. The class given is functional.
The test system of test [10] is Rattus norvegicus. The test can be described thus: Effect of compound on […], […] at 3 umol/kg upon subcutaneous administration; Catalepsy = 0/4. The class given is functional.
In test [11] the test system is Rattus norvegicus. The test can be described thus: Effect of compound on […], […] at 30 umol/kg upon subcutaneous administration; Catalepsy = 4/4. Type of test: functional.
In test [12] the test system is Rattus norvegicus. Briefly: Effect of compound on apomorphine induced locomotor hyperactivity (APO-induced LMA), […] at 3 umol/kg upon subcutaneous administration; LMA (locomotor activity). The class given is functional.
In another test the target is D(3) dopamine receptor (Rattus norvegicus, UniProt P19020).
Chain of D(3) dopamine receptor (P19020 whole entry): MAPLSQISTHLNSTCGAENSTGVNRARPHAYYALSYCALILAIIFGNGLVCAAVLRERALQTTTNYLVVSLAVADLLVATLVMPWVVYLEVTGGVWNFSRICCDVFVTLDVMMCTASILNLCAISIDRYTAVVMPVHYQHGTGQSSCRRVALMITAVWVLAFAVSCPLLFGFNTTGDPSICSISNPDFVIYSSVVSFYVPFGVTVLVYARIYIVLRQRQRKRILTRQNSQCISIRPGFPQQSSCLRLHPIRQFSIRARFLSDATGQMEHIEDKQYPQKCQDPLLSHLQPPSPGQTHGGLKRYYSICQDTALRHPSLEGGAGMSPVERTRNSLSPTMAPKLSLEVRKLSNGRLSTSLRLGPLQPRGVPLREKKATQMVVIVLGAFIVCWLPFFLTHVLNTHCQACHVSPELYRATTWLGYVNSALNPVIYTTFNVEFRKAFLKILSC
In test [13] the target is Sodium-dependent dopamine transporter (Rattus norvegicus) (UniProt P23977). The test can be described thus: Inhibition of dopamine uptake from dopamine uptake site.
Chain of Sodium-dependent dopamine transporter (Rattus norvegicus) (P23977 whole entry, looked up): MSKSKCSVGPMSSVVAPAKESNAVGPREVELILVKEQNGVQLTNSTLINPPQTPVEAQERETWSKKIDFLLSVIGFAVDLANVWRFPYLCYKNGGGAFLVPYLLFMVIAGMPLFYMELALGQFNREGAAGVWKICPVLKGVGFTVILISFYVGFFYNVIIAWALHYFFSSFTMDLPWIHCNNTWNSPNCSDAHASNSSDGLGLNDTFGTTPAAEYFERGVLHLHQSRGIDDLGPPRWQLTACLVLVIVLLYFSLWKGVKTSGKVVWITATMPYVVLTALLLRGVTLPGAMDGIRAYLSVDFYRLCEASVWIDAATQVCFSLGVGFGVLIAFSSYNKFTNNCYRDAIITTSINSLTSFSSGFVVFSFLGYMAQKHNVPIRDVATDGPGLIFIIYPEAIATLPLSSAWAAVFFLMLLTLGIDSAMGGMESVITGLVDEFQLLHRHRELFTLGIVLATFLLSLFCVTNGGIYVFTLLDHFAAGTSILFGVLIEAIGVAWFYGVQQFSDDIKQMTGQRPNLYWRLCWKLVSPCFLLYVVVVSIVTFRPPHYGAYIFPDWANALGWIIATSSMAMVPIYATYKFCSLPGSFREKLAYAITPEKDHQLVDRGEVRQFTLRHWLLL

Description for D(3) dopamine receptor: Binding affinity which represents concentration giving half-maximal inhibition of [3H]7-OH-DPAT binding to Dopamine receptor D3 in rat tissue homogenate

Regarding `Cc1cc2c(s1)Nc1ccccc1N=C2N1CCN(C)CC1` [OLANZAPINE], the Catalepsy with Rattus norvegicus [1], in the test on Rattus norvegicus [2] and in the test with Rattus norvegicus [6] was 0 each time. For the same compound, the figures for the LMA in the test with Rattus norvegicus [3], in the test with Rattus norvegicus [4] and in the test with Rattus norvegicus [5] were 47, 4 and 323, respectively. The “Log Ki” value in test [7] is on record as -7.9. Besides, in test [8], the inhibition constant Ki stood at 12 nM.
`CN1CCN(C2Cn3cccc3Sc3ccc(Cl)cc32)CC1.Cl.Cl` (racemic): the Catalepsy in the test on Rattus norvegicus [9] is given as 1; in the test on Rattus norvegicus [10], 0; in the test with Rattus norvegicus [11] it was 4; in the test on Rattus norvegicus [6] it was 0. The LMA is recorded as 43 in the test on Rattus norvegicus [3], 40 in the test on Rattus norvegicus [12], 39 in the test with Rattus norvegicus [4] and 877 in the test on Rattus norvegicus [5].
In the case of `CN1CCN(C2Cn3cccc3Sc3ccc(Cl)cc32)CC1` (racemic), on D(3) dopamine receptor, the Ki came out at 4.1 nM. The compound further returned a 50% inhibitory concentration (IC50) in [13] of 6500 nM.
